Like-named read-outs stand apart in the source and are kept apart here.
Legend:
[1] = tested on: human lung adenocarcinoma A549 cells; experiment: WST-1 cell viability assay, growth inhibition of A549 cells under normoxia and hypoxia; conditions: for Differential cytotoxicity O/H (hypoxic/aerobic cytotoxicity coefficient): ratio IC50 normoxia / IC50 hypoxia, A549; for inhibition of the cell growth / decrease of cell viability compared to control cells: compound at 10 µM, 48 h
Procedure: (§1) The human lung adenocarcinoma A549 cell line, purchased from Health Protection Agency Culture Collections (ECACC, Salisbury, UK), was cultured in F12K medium (HyClone, Loughborough, UK) supplemented with 10% heat-inactivated foetal bovine serum (FBS), penicillin (10 U/mL) and streptomycin (10 µg/mL) in air with 5% CO2 at 37 °C. Hypoxic cells were obtained by culturing in a hypoxic incubator in 1% O2 and 5% CO2 at 37 °C for 24 h before treatment.
(§2) In order to determine the anticancer activity of the analysed compounds we evaluated the cell viability using THE WST-1 assay (Millipore, Billerica, MA, USA) according to the manufacturer’s instructions.
(§3) The absorbance was determined at 420 nm using a microplate reader (Synergy H1, Bio-Tek, Winooski, VT, USA) after 3 h of incubation at 37 °C.
(§4) In order to determine the anticancer activity of the analysed compounds we evaluated the cell viability using the WST-1 assay, which is based on the conversion of the tetrazolium salt WST-1 to formazan by cellular mitochondrial dehydrogenases. Therefore, the amount of formazan dye formed directly correlates with the number of live cells in the culture.
(§5) A549 cells were seeded in 96-well plates at a density of 5,000 cells/well and cultured under normoxic conditions. To investigate the effect of compounds on hypoxic cancer cells, A549 cells were exposed to hypoxia (1% O2) for 24 h before treatment. […] Normoxic and hypoxic cells were treated with different concentrations of the tested compounds or vehicle (0.2% DMSO) for control cells. The cell viability was assessed after a 48 h incubation under normoxic or hypoxic conditions with the compounds. Briefly, WST-1 reagent was added to the cells and the percentage (%) of cell viability related to control cells was calculated by the expression [A] test/[A] control × 100 where [A] test is the absorbance of the cells treated with compounds and [A] control is the absorbance of control cells.

[2] = Stability (degradation kinetics, recovery) in different solvent environments by RP-UPLC; assay type: physicochemical; conditions: for half-life at 0.1 mg/mL: read-out: degradation t1/2 (converted)
Procedure: Chromatographic purification was performed on silica gel plates (Merck F254, Darmstadt, Germany) with the indicated eluents. Chemicals and solvents were obtained from commercial sources. The UPLC system consisted of an Acquity Ultra Performance LC Waters H-class system (Waters, Corporation, Milford, MA, USA). Chromatographic separation was achieved on an Acquity UPLC HSS T3 column (1.8 µm × 2.1 × 50 mm). The chromatographic peaks were identified with the Waters PDA eλ Acquity UPLC Detector. Compound 5b was monitored at a wavelength of 261 nm and compound 6b at 289 nm. All chromatographic experiments were performed in an isocratic mode. The mobile phase consisted of a mixture of solvents of chromatographic purity, acetonitrile/buffer (30:70 v/v). Buffer was a 0.01 M mixture of ammonium formate and formic acid pH = 2.4. The flow rate was set to 0.5 mL/min and the oven temperature to 25 °C. Compound samples were weighed on analytical scales with an accuracy of 0.01 mg. All the samples were prepared in 5, 10 and 25 mL volumetric flasks. Solution volume injections of 1.5 µL were performed with the use of an autosampler. Each sample was analysed three times and the run time analysis was five minutes. All solutions were filtered through a 0.45 µm membrane filter. The final result was presented as an arithmetical mean. The control of the UPLC system and detection was achieved by the Empower 3 Waters® software. Solvents for UPLC analysis were of UPLC grade and obtained from J. T. Baker (Center Valley, PA, USA). The method was validated in terms of precision, accuracy, specificity, detectability, and stability for compounds 5b and 6b.
Stability: Each medium (1 mL, 0.2% DMSO, water, 0.9% NaCl, and HCl pH = 1.5) was added to 10 mL volumetric flasks containing products 5b and 6b (1 mg). The flasks were filled up with the mobile phase. Each solution was analysed at t0 and after 6, 24, 48, and 72 h. The obtained calibration curve was used for the determination of degradation kinetics of the compounds in the solvents. The degradation kinetic parameters: rate constant (k) and t1/2 (half-life) were calculated with the use of Equation (3), where c0 is the concentration at time zero, c is the remaining concentration, k is the rate constant (h^−1) and t is the time (h): […]

[3] = as above; assay type: physicochemical; conditions: for half-life at 0.1 mg/mL: read-out: degradation t1/2 (converted); remark: listed apart in the source
[4] = tested on: human lung adenocarcinoma A549 cells
Procedure: as §1, §2, §3, §4, §5

[5] = read-out: IC50 A549 Hypoxia (H), A549 cells, hypoxia (1% O2, 24 h before treatment and during culture), 48 h incubation, WST-1, mean ± SD, n = 3
[6] = Homo sapiens, A549, 48 h, read-out: IC50 A549 Normoxia (O), A549 cells, normoxia, 48 h incubation, WST-1, mean ± SD, n = 3
[7] = Homo sapiens, A549, read-out: IC50 A549 Hypoxia (H), A549 cells, hypoxia (1% O2, 24 h before treatment and during culture), 48 h incubation, WST-1, mean ± SD, n = 3
[8] = read-out: IC50 A549 Normoxia (O), A549 cells, normoxia, 48 h incubation, WST-1, mean ± SD, n = 3

Row | Compound | IC50 [1, 5] | IC50 [1, 6] | IC50 [1, 7] | IC50 [1, 8] | Differential cytotoxicity O/H (hypoxic/aerobic cytotoxicity coefficient) [1] | other results
1 | O=C1C=CC(=O)c2[nH]c(-c3ccc4ccccc4c3)nc21 [Compound 5d, 2-Naphthyl-1H-benzimidazol-4,7-dione] | 232.4 ± 1.4 µM | – | – | – | 2.06 | –
2 | O=C1C=CC(=O)c2[nH]c(-c3ccccc3[N+](=O)[O-])nc21 [Compound 5b, 2-(2-Nitrophenyl)-1H-benzimidazol-4,7-dione] | – | < 100 µM | 47.4 ± 1.1 µM | 100 ± 1.8 µM | 2.13 | degradation rate constant k ([2]; 0.2% DMSO): 0.0002 h⁻¹; half-life at 0.1 mg/mL ([2]; 0.2% DMSO): 215 h; degradation rate constant k ([2]; 0.9% NaCl): 0.0004 h⁻¹; half-life at 0.1 mg/mL ([2]; 0.9% NaCl): 155 h; degradation ([2]; water, up to 72 h): did not suffer any degradation; half-life at 0.1 mg/mL ([2]; water, H2O): > 72 h; half-life at 0.1 mg/mL ([3]; MeOH): > 72 h; degradation ([3]; methanol, up to 72 h): did not suffer any degradation
3 | 2-(4-Chlorophenyl)-1H-benzimidazol-4,7-dione N-oxide [Compound 6a] | 35 ± 1.6 µM | – | – | 116 ± 1.9 µM | – | inhibition of the cell growth / decrease of cell viability compared to control cells ([1]; normoxia): 20%; Differential cytotoxicity O/H (hypoxic/aerobic cytotoxicity coefficient) [4]: 3.28
4 | O=C1C=CC(=O)c2[nH]c(-c3ccc4c(c3)OCO4)nc21 [Compound 5c, 2-Benzo[1,3]dioxol-1H-benzimidazol-4,7-dione] | – | 80.9 ± 1.9 µM | 51.2 ± 1.5 µM | – | 1.58 | –
5 | O=C1C=CC(=O)c2[nH]c(-c3ccc(Cl)cc3)nc21 [Compound 5a, 2-(4-Chlorophenyl)-1H-benzimidazol-4,7-dione] | – | 30.2 ± 1.2 µM | 36.1 ± 1.2 µM | – | 0.83 | inhibition of the cell growth / decrease of cell viability compared to control cells ([1]; normoxia): approximately 33%

More lines, main results first:

Row | IC50 [1, 5] | IC50 [1, 6] | IC50 [1, 7] | IC50 [1, 8] | Compound | Differential cytotoxicity O/H (hypoxic/aerobic cytotoxicity coefficient) [1] | other results
6 | 96.8 ± 1.9 µM | – | – | – | O=C1C=CC(=O)c2c1[nH]c(-c1ccc3ccccc3c1)[n+]2[O-] [Compound 6d, 2-Naphthyl-1H-benzimidazol-4,7-dione N-oxide] | 2.62 | –
7 | – | 166 µM | 30 ± 1.5 µM | 166.2 ± 1.6 µM | Nc1n[n+]([O-])c2ccccc2[n+]1[O-] [Tirapazamine, reference compound] | – | –
8 | – | 79.5 ± 1.9 µM | 44 ± 2.5 µM | – | O=C1C=CC(=O)c2c1[nH]c(-c1ccc3c(c1)OCO3)[n+]2[O-] [Compound 6c, 2-Benzo[1,3]dioxol-1H-benzimidazol-4,7-dione N-oxide] | 1.80 | –
9 | – | – | 116 ± 0.8 µM | – | O=C1C=CC(=O)c2c1[nH]c(-c1ccccc1[N+](=O)[O-])[n+]2[O-] [Compound 6b, 2-(2-Nitrophenyl)-1H-benzimidazol-4,7-dione N-oxide] | 4.31 | degradation rate constant k ([2]; 0.2% DMSO): 0.00009 h⁻¹; half-life at 0.1 mg/mL ([2]; 0.2% DMSO): 413 h; degradation rate constant k ([2]; 0.9% NaCl): 0.0004 h⁻¹; half-life at 0.1 mg/mL ([2]; 0.9% NaCl): 142 h; degradation rate constant k ([2]; H2O): 0.0004 h⁻¹; half-life at 0.1 mg/mL ([2]; water, H2O): 146 h; degradation rate constant k ([3]; MeOH): 0.0002 h⁻¹; half-life at 0.1 mg/mL ([3]; MeOH): 161 h
